Columns and labels:
Staphylococcus aureus = experiment: Antibacterial activity against methicillin-resistant Staphylococcus aureus clinical isolate measured after overnight incubation at 37 degC; format: functional
Candida albicans = experiment: Antimicrobial activity against Candida albicans SC5314 measured after overnight incubation at 35 degC by broth microdilution assay; format: functional

Row | Structure (SMILES) | MIC (Staphylococcus aureus) [µg/mL] | MIC (Candida albicans) [µg/mL]
1 | CCCCCC/C=C/[C@H]1CC2=C(O1)[C@H](O)CCC2=O [TRICHODERMAKETONE D] | > 100 | –
2 | CCCCCC[C@H]1O[C@H]2C3=C(O[C@H]2[C@H]1O)[C@H](O)CCC3=O [TRICHODERMAKETONE B] | > 100 | –
3 | CCCCCC[C@H](O)[C@@H]1C[C@@H](OC)C2=C(O1)[C@H](O)CCC2=O | > 100 | –
4 | CCCCCC/C=C/[C@@H]1CC2=C(O1)[C@H](O)CCC2=O [TRICHODERMAKETONE C] | > 100 | –
5 | CCCCCC[C@@H]1O[C@@H]2C3=C(O[C@@H]2[C@@H]1O)[C@H](O)CCC3=O [TRICHODERMAKETONE A] | > 100 | > 125
